The record followed here is US20260152480A1, “POLYCYCLIC COMPOUND AND USE THEREOF” (TYK MEDICINES , INC., priority 2022, published 2026).

The term IC50 denotes the concentration that inhibits the measured activity by half. For orientation: AUC(0-inf) means total exposure, with the tail of the curve extrapolated. As usually defined, the AUC(0-t) is the area under the concentration-time curve up to a stated or last time point. For orientation: Cmax means the highest concentration seen after dosing. For orientation: MRT last means a mean duration of stay, worked out from the concentration-time curve. The term Tmax denotes the time from dosing to the highest level.

For data set [1], the system named is Human pleural mesothelioma cells NCI-H226. The data set can be described thus: Proliferation inhibition assay of human pleural mesothelioma cells NCI-H226 (CCK8). It is filed as cell-based. To be noted: 72 h, 3 days incubation.
The next data set has as its system YAP-TEAD. The data set can be described thus: Nano luciferase method to detect YAP-TEAD inhibitor activity (293T cells transfected with pGL3B-8×GTiiC-nLuc-CMV-fLuc). It is filed as cell-based. The note with it: Homo sapiens, HEK-293T; transfected 293T cells, 48 hours incubation; read-out: Nano Luciferas detection (IC50).
The nature of data set [2]: Pharmacokinetic study of the drug, oral administration to rats (plasma, cerebrospinal fluid, brain tissue). It is filed as in vivo. The note with it: SD rat, 10 mg/kg, single; for Kp: brain tissue (post perfusion) and plasma, read-out: B/P value; for Kp uu: in vivo, read-out: Kpuu Value; for AUC(0-inf) / AUC(0-t) / Cmax / MRT last / Tmax: plasma. The source says:
Experimental Example 3 Pharmacokinetic Study of the Drug
Oral Administration Solvent: 5% DMSO+10% Solutol HS15+85% Saline
Oral administration preparation process: weighed the appropriate amount of powder, added the appropriate volume of DMSO, vortex, then added the appropriate volume of Solutol solution, vortex, and added the appropriate amount of saline, vortex ultrasound into a homogeneous and clarified state of the preparation solution.
The animal room was equipped with an air-conditioning system and well ventilated, and the indoor temperature was maintained in the range of 20-26° C., and the humidity was maintained in the range of 40%-70%. The animal room was artificially illuminated with 12 hours of light and 12 hours of dark (except for the working light that needed to be turned on for experimental operation and cleaning), and the experimental animals were free to feed and drink.
Animals were purchased and fed normally for at least 3 days, and rats that were examined by a veterinarian and had qualified physical conditions were enrolled in this experiment; each rat was labeled with a tail mark. Animals in the oral administration group were fasted overnight the day before administration, and resumed feeding and drinking freely 4 hours after administration.
Before administration, checked the state of the administered preparation, ensured the homogeneity of the preparation by vortexing, stirring or oscillating, and calculated the theoretical volume of the administered drug for each SD rat in each group according to the following formula.
Mode of administration: Oral administration to rats, fasted overnight prior to administration.

The compound `C=CC(=O)N1CCC(c2nccnc2Nc2ccc(C(F)(F)F)cc2)CC1` [Compound T16] returned an IC50 in data set [1] of no more than 100 nM. Further, the IC50 in the data set on YAP-TEAD is no more than 100 nM. Moreover, in data set [2], the “HL—” value is 2.07 h, the Kp turned out to be 1.41, the Kp uu is 0.518 and the AUC(0-inf) stood at 17400 ng·h/mL. In data set [2], the area under the curve AUC(0-t) was 17300 ng·h/mL, the maximum concentration (Cmax) was 2840 ng/mL, the MRT last amounted to 4.48 h and the Tmax is 2.67 h.

`C=CC(=O)N1CCC(c2ccc(Cl)nc2Nc2ccc(C(F)(F)F)cc2)CC1` [Compound T27] registered an IC50 in data set [1] of 100 to 1000 nM. Besides, the IC50 in the data set on YAP-TEAD was no more than 100 nM. In data set [2], the “HL—” value is listed as 3.03 h, the AUC(0-inf) worked out at 19600 ng·h/mL, the area under the curve AUC(0-t) is 19400 ng·h/mL and the maximum concentration (Cmax) was 1880 ng/mL. For the same compound, in data set [2], the mean residence time (MRT last) stood at 6.89 h and the Tmax came to 3.33 h.

Compound `C=CC(=O)N1CCC(c2cccnc2Oc2ccc(C(F)(F)F)cc2)CC1` [Compound T59] displayed an IC50 in data set [1] of no more than 100 nM. For the same compound, the IC50 with YAP-TEAD is no more than 100 nM. In addition, in data set [2], the “HL—” value came to 2.66 h, the Kp is 1.22, the Kp uu was determined as 0.765 and the AUC(0-inf) was found to be 3920 ng·h/mL. In data set [2], the AUC(0-t) was found to be 3910 ng·h/mL, the maximum concentration (Cmax) was 679 ng/mL, the MRT last amounted to 4.6 h and the Tmax is 1.5 h.

In turn, `C=CC(=O)N1CCC(c2cc(C)cnc2Nc2ccc(C(F)(F)F)cc2)CC1` [Compound T22] registered a half-maximal inhibitory concentration (IC50) in data set [1] of no more than 100 nM. In addition, in the data set on YAP-TEAD, the IC50 was no more than 100 nM. Moreover, in data set [2], the “HL—” value is reported as 2.64 h, the AUC(0-inf) stood at 3500 ng·h/mL, the exposure AUC(0-t) was 3290 ng·h/mL and the peak concentration (Cmax) came to 594 ng/mL. In data set [2], the mean residence time (MRT last) was determined as 3.97 h and the Tmax was determined as 2 h.
